Measurements as given in ChEMBL document CHEMBL4828722, “The synthesis and bioactivity of pyrrolo[2,3-d]pyrimidine derivatives as tyrosine kinase inhibitors for NSCLC cells with EGFR mutations” (Eur J Med Chem, 2021).
Calls of active or inactive are those of the source. The calls are words filed in the database; no cut-off is given here.

The molecules below were run on HCC827 (assay: Induction of apoptosis in human HCC827 cells harboring EGFR del E746-A750 mutant assessed as early apoptotic cells at 5 uM measured after 18 hrs by Annexin V-FITC/PI staining based flow cytometry analysis (Rvb= 9.6%)). Conditions: not given.
Type: functional

| Structure (SMILES) | Activity |
| --- | --- |
| C=CC(=O)Nc1cccc(Oc2nc(Nc3ccc(N4CCN(C)CC4)c([N+](=O)[O-])c3)nc3[nH]ccc23)c1 | 10.9% |

These molecules were tested on HCC827 (assay: Induction of apoptosis in human HCC827 cells harboring EGFR del E746-A750 mutant assessed as total apoptotic cells at 0.5 uM measured after 18 hrs by Annexin V-FITC/PI staining based flow cytometry analysis (Rvb= 10.8%)). Conditions: not given.
Type: functional

| Structure (SMILES) | Activity |
| --- | --- |
| C=CC(=O)Nc1cccc(Oc2nc(Nc3ccc(N4CCN(C)CC4)c([N+](=O)[O-])c3)nc3[nH]ccc23)c1 | 23.8% |

These molecules were tested on HCC827 (assay: Induction of cell cycle arrest in human HCC827 cells harboring EGFR del E746-A750 mutant assessed as accumulation of cells in S phase at 0.5 uM measured after 18 hrs by PI/RNaseA staining based flow cytometry analysis (Rvb= 33.62%)). Conditions: not given.
Type: functional

| Structure (SMILES) | Activity |
| --- | --- |
| C=CC(=O)Nc1cccc(Oc2nc(Nc3ccc(N4CCN(C)CC4)c([N+](=O)[O-])c3)nc3[nH]ccc23)c1 | 14.31% |

Each molecule was assayed against Mitogen-activated protein kinase; ERK1/ERK2 (Homo sapiens) (UniProt P27361+P28482) (assay: Inhibition of ERK1/2 phosphorylation at Thr202/Tyr204 residue in human HBE cells at 5 uM incubated for 2 hrs by immunoblotting analysis). Conditions: not given.
Sequence of Mitogen-activated protein kinase; ERK1/ERK2 (Homo sapiens) (P27361 whole entry, looked up): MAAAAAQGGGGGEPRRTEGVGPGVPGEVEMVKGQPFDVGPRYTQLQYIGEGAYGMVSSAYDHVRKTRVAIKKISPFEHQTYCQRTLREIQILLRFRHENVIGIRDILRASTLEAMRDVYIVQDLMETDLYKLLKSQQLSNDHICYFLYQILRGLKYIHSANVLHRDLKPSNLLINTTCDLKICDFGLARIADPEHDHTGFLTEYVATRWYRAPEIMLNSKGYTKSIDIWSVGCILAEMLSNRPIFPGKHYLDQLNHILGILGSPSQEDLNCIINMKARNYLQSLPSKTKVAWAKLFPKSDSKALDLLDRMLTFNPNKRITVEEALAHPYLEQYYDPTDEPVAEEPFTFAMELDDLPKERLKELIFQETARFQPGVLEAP
Sequence of Mitogen-activated protein kinase; ERK1/ERK2 (Homo sapiens) (P28482 whole entry, looked up): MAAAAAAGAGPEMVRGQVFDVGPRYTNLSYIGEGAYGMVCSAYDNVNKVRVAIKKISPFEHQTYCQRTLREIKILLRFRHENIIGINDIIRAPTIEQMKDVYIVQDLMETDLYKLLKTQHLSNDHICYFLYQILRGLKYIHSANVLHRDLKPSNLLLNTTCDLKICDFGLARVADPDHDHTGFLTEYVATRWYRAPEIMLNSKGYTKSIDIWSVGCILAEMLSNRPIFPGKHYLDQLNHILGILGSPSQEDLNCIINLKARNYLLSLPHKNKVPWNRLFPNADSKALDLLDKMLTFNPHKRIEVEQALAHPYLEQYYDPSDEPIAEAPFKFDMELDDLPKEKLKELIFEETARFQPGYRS
Type: cell-based

| Structure (SMILES) | inhibition |
| --- | --- |
| C=CC(=O)Nc1cccc(Oc2nc(Nc3ccc(N4CCN(C)CC4)c([N+](=O)[O-])c3)nc3[nH]ccc23)c1 | Active |

The molecules below were run on A549 (assay: Induction of cell cycle arrest in human A549 cells harboring wild type EGFR assessed as accumulation of cells in G0/G1 phase at 0.5 uM measured after 18 hrs by PI/RNaseA staining based flow cytometry analysis (Rvb= 58.27%)). Conditions: not given.
Type: functional

| Structure (SMILES) | Activity |
| --- | --- |
| C=CC(=O)Nc1cccc(Oc2nc(Nc3ccc(N4CCN(C)CC4)c([N+](=O)[O-])c3)nc3[nH]ccc23)c1 | 62.63% |

Each molecule was assayed on NCI-H1975 (assay: Induction of apoptosis in human NCI-H1975 cells harboring EGFR L858R/T790M mutant assessed as dead cells at 5 uM measured after 18 hrs by Annexin V-FITC/PI staining based flow cytometry analysis (Rvb= […])). Conditions: not given.
Type: functional

| Structure (SMILES) | Activity |
| --- | --- |
| C=CC(=O)Nc1cccc(Oc2nc(Nc3ccc(N4CCN(C)CC4)c([N+](=O)[O-])c3)nc3[nH]ccc23)c1 | 1.8% |

The molecules below were run on NCI-H1975 (assay: Induction of cell cycle arrest in human NCI-H1975 cells harboring EGFR L858R/T790M mutant assessed as accumulation of cells in G0/G1 phase at 5 uM measured after 18 hrs by PI/RNaseA staining based flow cytometry analysis (Rvb= 42.69%)). Conditions: not given.
Type: functional

| Structure (SMILES) | Activity |
| --- | --- |
| C=CC(=O)Nc1cccc(Oc2nc(Nc3ccc(N4CCN(C)CC4)c([N+](=O)[O-])c3)nc3[nH]ccc23)c1 | 80.34% |

Each molecule was assayed on HCC827 (assay: Induction of cell cycle arrest in human HCC827 cells harboring EGFR del E746-A750 mutant assessed as accumulation of cells in G2/M phase at 5 uM measured after 18 hrs by PI/RNaseA staining based flow cytometry analysis (Rvb= 16.78%)). Conditions: not given.
Type: functional

| Structure (SMILES) | Activity |
| --- | --- |
| C=CC(=O)Nc1cccc(Oc2nc(Nc3ccc(N4CCN(C)CC4)c([N+](=O)[O-])c3)nc3[nH]ccc23)c1 | 14.12% |

What follows are molecules tested on NCI-H1975 (assay: Induction of apoptosis in human NCI-H1975 cells harboring EGFR L858R/T790M mutant assessed as total apoptotic cells at 5 uM measured after 18 hrs by Annexin V-FITC/PI staining based flow cytometry analysis (Rvb= 9.2%)). Conditions: not given.
Type: functional

| Structure (SMILES) | Activity |
| --- | --- |
| C=CC(=O)Nc1cccc(Oc2nc(Nc3ccc(N4CCN(C)CC4)c([N+](=O)[O-])c3)nc3[nH]ccc23)c1 | 13.5% |

These molecules were tested on HCC827 (assay: Induction of apoptosis in human HCC827 cells harboring EGFR del E746-A750 mutant assessed as late apoptotic cells at 5 uM measured after 18 hrs by Annexin V-FITC/PI staining based flow cytometry analysis (Rvb= 1.2%)). Conditions: not given.
Type: functional

| Structure (SMILES) | Activity |
| --- | --- |
| C=CC(=O)Nc1cccc(Oc2nc(Nc3ccc(N4CCN(C)CC4)c([N+](=O)[O-])c3)nc3[nH]ccc23)c1 | 19.4% |

The molecules below were run on A549 (assay: Induction of cell cycle arrest in human A549 cells harboring wild type EGFR assessed as accumulation of cells in S phase at 5 uM measured after 18 hrs by PI/RNaseA staining based flow cytometry analysis (Rvb= 33.26%)). Conditions: not given.
Type: functional

| Structure (SMILES) | Activity |
| --- | --- |
| C=CC(=O)Nc1cccc(Oc2nc(Nc3ccc(N4CCN(C)CC4)c([N+](=O)[O-])c3)nc3[nH]ccc23)c1 | 8.2% |

Each molecule was assayed on NCI-H1975 (assay: Induction of apoptosis in human NCI-H1975 cells harboring EGFR L858R/T790M mutant assessed as late apoptotic cells at 0.5 uM measured after 18 hrs by Annexin V-FITC/PI staining based flow cytometry analysis (Rvb= 0.1%)). Conditions: not given.
Type: functional

| Structure (SMILES) | Activity |
| --- | --- |
| C=CC(=O)Nc1cccc(Oc2nc(Nc3ccc(N4CCN(C)CC4)c([N+](=O)[O-])c3)nc3[nH]ccc23)c1 | 0.3% |

These molecules were tested on A549 (assay: Induction of cell cycle arrest in human A549 cells harboring wild type EGFR assessed as accumulation of cells in G0/G1 phase at 1 uM measured after 18 hrs by PI/RNaseA staining based flow cytometry analysis (Rvb= 58.27%)). Conditions: not given.
Type: functional

| Structure (SMILES) | Activity |
| --- | --- |
| C=CC(=O)Nc1cccc(Oc2nc(Nc3ccc(N4CCN(C)CC4)c([N+](=O)[O-])c3)nc3[nH]ccc23)c1 | 70.46% |

The molecules below were run on HCC827 (assay: Induction of cell cycle arrest in human HCC827 cells harboring EGFR del E746-A750 mutant assessed as accumulation of cells in G0/G1 phase at 1 uM measured after 18 hrs by PI/RNaseA staining based flow cytometry analysis (Rvb= 49.60%)). Conditions: not given.
Type: functional

| Structure (SMILES) | Activity |
| --- | --- |
| C=CC(=O)Nc1cccc(Oc2nc(Nc3ccc(N4CCN(C)CC4)c([N+](=O)[O-])c3)nc3[nH]ccc23)c1 | 77.64% |

The molecules below were run on HCC827 (assay: Induction of apoptosis in human HCC827 cells harboring EGFR del E746-A750 mutant assessed as early apoptotic cells at 0.5 uM measured after 18 hrs by Annexin V-FITC/PI staining based flow cytometry analysis (Rvb= 9.6%)). Conditions: not given.
Type: functional

| Structure (SMILES) | Activity |
| --- | --- |
| C=CC(=O)Nc1cccc(Oc2nc(Nc3ccc(N4CCN(C)CC4)c([N+](=O)[O-])c3)nc3[nH]ccc23)c1 | 12.4% |

What follows are molecules tested on A549 (assay: Induction of cell cycle arrest in human A549 cells harboring wild type EGFR assessed as accumulation of cells in G2/M phase at 1 uM measured after 18 hrs by PI/RNaseA staining based flow cytometry analysis (Rvb= 8.47%)). Conditions: not given.
Type: functional

| Structure (SMILES) | Activity |
| --- | --- |
| C=CC(=O)Nc1cccc(Oc2nc(Nc3ccc(N4CCN(C)CC4)c([N+](=O)[O-])c3)nc3[nH]ccc23)c1 | 8.33% |

These molecules were tested on NCI-H1975 (assay: Induction of cell cycle arrest in human NCI-H1975 cells harboring EGFR L858R/T790M mutant assessed as accumulation of cells in G0/G1 phase at 0.5 uM measured after 18 hrs by PI/RNaseA staining based flow cytometry analysis (Rvb= 42.69%)). Conditions: not given.
Type: functional

| Structure (SMILES) | Activity |
| --- | --- |
| C=CC(=O)Nc1cccc(Oc2nc(Nc3ccc(N4CCN(C)CC4)c([N+](=O)[O-])c3)nc3[nH]ccc23)c1 | 64.89% |

The molecules below were run on NCI-H1975 (assay: Induction of cell cycle arrest in human NCI-H1975 cells harboring EGFR L858R/T790M mutant assessed as accumulation of cells in S phase at 5 uM measured after 18 hrs by PI/RNaseA staining based flow cytometry analysis (Rvb= 39.78%)). Conditions: not given.
Type: functional

| Structure (SMILES) | Activity |
| --- | --- |
| C=CC(=O)Nc1cccc(Oc2nc(Nc3ccc(N4CCN(C)CC4)c([N+](=O)[O-])c3)nc3[nH]ccc23)c1 | 10.03% |

These molecules were tested on HCC827 (assay: Cytotoxicity against human HCC827 cells harboring EGFR del E746-A750 mutant assessed as reduction in cell viability measured after 48 hrs by CCK8 assay). Conditions: HCC827, 48 h.
Type: functional, cell-based

| Structure (SMILES) | IC50 |
| --- | --- |
| C=CC(=O)Nc1cccc(Oc2nc(Nc3ccc(N4CCN(C)CC4)c([N+](=O)[O-])c3)nc3[nH]ccc23)c1 | 110 nM |

These molecules were tested on NCI-H1975 (assay: Inhibition of AKT phosphorylation in human NCI-H1975 cells at 0.1 to 5 uM incubated for 2 hrs by immunoblotting analysis). Conditions: dose 0.1-5 µM.
Type: cell-based

| Structure (SMILES) | inhibition |
| --- | --- |
| C=CC(=O)Nc1cccc(Oc2nc(Nc3ccc(N4CCN(C)CC4)c([N+](=O)[O-])c3)nc3[nH]ccc23)c1 | Active |

Each molecule was assayed on NCI-H1975 (assay: Induction of cell cycle arrest in human NCI-H1975 cells harboring EGFR L858R/T790M mutant assessed as accumulation of cells in G2/M phase at 5 uM measured after 18 hrs by PI/RNaseA staining based flow cytometry analysis (Rvb= 17.33%)). Conditions: not given.
Type: functional

| Structure (SMILES) | Activity |
| --- | --- |
| C=CC(=O)Nc1cccc(Oc2nc(Nc3ccc(N4CCN(C)CC4)c([N+](=O)[O-])c3)nc3[nH]ccc23)c1 | 9.63% |

Each molecule was assayed against Signal transducer and activator of transcription 3 (Homo sapiens) (UniProt P40763) (assay: Inhibition of STAT3 phosphorylation at Ser727 residue in human HBE cells at 5 uM incubated for 2 hrs by immunoblotting analysis). Conditions: not given.
Sequence of Signal transducer and activator of transcription 3 (Homo sapiens) (P40763 whole entry): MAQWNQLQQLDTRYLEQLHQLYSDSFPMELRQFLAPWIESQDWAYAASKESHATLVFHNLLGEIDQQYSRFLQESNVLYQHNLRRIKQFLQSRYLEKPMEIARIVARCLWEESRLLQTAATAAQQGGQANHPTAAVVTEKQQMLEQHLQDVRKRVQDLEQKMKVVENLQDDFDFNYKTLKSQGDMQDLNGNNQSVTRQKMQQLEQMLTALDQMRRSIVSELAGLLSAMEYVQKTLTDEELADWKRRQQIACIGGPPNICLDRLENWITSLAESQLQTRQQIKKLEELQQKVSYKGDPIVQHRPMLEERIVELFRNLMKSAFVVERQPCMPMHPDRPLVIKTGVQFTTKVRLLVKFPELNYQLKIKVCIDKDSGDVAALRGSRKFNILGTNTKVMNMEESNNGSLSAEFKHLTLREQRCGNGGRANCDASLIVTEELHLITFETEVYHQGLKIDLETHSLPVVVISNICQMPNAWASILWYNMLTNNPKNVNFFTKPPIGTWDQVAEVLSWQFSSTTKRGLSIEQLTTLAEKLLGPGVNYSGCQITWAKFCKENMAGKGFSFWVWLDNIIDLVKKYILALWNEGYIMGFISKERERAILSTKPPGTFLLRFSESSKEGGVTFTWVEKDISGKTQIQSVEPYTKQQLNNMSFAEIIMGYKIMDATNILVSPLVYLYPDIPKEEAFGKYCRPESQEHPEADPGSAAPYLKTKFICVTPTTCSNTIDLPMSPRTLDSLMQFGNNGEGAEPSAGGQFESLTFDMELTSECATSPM
Type: cell-based

| Structure (SMILES) | inhibition |
| --- | --- |
| C=CC(=O)Nc1cccc(Oc2nc(Nc3ccc(N4CCN(C)CC4)c([N+](=O)[O-])c3)nc3[nH]ccc23)c1 | inactive |

The molecules below were run on NCI-H1975 (assay: Induction of apoptosis in human NCI-H1975 cells harboring EGFR L858R/T790M mutant assessed as late apoptotic cells at 5 uM measured after 18 hrs by Annexin V-FITC/PI staining based flow cytometry analysis (Rvb= 0.1%)). Conditions: not given.
Type: functional

| Structure (SMILES) | Activity |
| --- | --- |
| C=CC(=O)Nc1cccc(Oc2nc(Nc3ccc(N4CCN(C)CC4)c([N+](=O)[O-])c3)nc3[nH]ccc23)c1 | 0.3% |

These molecules were tested on NCI-H1975 (assay: Induction of apoptosis in human NCI-H1975 cells harboring EGFR L858R/T790M mutant assessed as live cells at 0.5 uM measured after 18 hrs by Annexin V-FITC/PI staining based flow cytometry analysis (Rvb= 89.4%)). Conditions: not given.
Type: functional

| Structure (SMILES) | Activity |
| --- | --- |
| C=CC(=O)Nc1cccc(Oc2nc(Nc3ccc(N4CCN(C)CC4)c([N+](=O)[O-])c3)nc3[nH]ccc23)c1 | 85.3% |

Each molecule was assayed on HCC827 (assay: Induction of apoptosis in human HCC827 cells harboring EGFR del E746-A750 mutant assessed as live cells at 5 uM measured after 18 hrs by Annexin V-FITC/PI staining based flow cytometry analysis (Rvb= 87.5%)). Conditions: not given.
Type: functional

| Structure (SMILES) | Activity |
| --- | --- |
| C=CC(=O)Nc1cccc(Oc2nc(Nc3ccc(N4CCN(C)CC4)c([N+](=O)[O-])c3)nc3[nH]ccc23)c1 | 73.7% |

What follows are molecules tested on NCI-H1975 (assay: Induction of apoptosis in human NCI-H1975 cells harboring EGFR L858R/T790M mutant assessed as total apoptotic cells at 0.5 uM measured after 18 hrs by Annexin V-FITC/PI staining based flow cytometry analysis (Rvb= 9.2%)). Conditions: not given.
Type: functional

| Structure (SMILES) | Activity |
| --- | --- |
| C=CC(=O)Nc1cccc(Oc2nc(Nc3ccc(N4CCN(C)CC4)c([N+](=O)[O-])c3)nc3[nH]ccc23)c1 | 12.7% |

The molecules below were run on HCC827 (assay: Induction of cell cycle arrest in human HCC827 cells harboring EGFR del E746-A750 mutant assessed as accumulation of cells in G0/G1 phase at 0.5 uM measured after 18 hrs by PI/RNaseA staining based flow cytometry analysis (Rvb= 49.60%)). Conditions: not given.
Type: functional

| Structure (SMILES) | Activity |
| --- | --- |
| C=CC(=O)Nc1cccc(Oc2nc(Nc3ccc(N4CCN(C)CC4)c([N+](=O)[O-])c3)nc3[nH]ccc23)c1 | 77.19% |
